According to US7368578B2, “Five-membered heterocyclic compounds” (Takeda Pharmaceutical Company Limited, priority 2002, dated 2008):

Assays:
human PPARγ1 = biological target: T1, human PPARγ1 (Homo sapiens, UniProt P37231); assay: Human PPARγ1 antagonist assay (luciferase reporter in PPARγ:RXRα:4ERPP/CHO-K1 cells); assay type: cell-based; details: test compound 10^−6 M, 10 nM compound A as stimulant, luciferase activity, 24 hrs, read-out: Inhibitory rate (%)
T1 construct: expressed in transfected cells; host or cells: CHO-K1 cells stably transfected with pVgRXR2-hPPARγ and reporter plasmid pGL3-4ERPP-TK neo
T1 sequence (P37231 1-477 isoform P37231-2): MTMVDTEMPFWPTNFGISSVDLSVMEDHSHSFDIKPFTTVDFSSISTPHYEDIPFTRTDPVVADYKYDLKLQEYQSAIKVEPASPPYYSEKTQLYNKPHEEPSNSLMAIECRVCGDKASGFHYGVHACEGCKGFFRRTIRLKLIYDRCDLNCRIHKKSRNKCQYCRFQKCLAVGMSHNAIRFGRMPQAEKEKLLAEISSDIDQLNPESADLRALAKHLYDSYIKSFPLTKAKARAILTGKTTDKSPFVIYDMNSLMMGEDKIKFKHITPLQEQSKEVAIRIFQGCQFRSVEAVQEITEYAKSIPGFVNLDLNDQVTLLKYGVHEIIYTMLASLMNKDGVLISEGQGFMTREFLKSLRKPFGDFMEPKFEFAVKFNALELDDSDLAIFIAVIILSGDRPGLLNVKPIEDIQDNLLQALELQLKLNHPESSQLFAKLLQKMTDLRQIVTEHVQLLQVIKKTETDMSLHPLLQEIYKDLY
T1 sequence (P19793 1-462 partner): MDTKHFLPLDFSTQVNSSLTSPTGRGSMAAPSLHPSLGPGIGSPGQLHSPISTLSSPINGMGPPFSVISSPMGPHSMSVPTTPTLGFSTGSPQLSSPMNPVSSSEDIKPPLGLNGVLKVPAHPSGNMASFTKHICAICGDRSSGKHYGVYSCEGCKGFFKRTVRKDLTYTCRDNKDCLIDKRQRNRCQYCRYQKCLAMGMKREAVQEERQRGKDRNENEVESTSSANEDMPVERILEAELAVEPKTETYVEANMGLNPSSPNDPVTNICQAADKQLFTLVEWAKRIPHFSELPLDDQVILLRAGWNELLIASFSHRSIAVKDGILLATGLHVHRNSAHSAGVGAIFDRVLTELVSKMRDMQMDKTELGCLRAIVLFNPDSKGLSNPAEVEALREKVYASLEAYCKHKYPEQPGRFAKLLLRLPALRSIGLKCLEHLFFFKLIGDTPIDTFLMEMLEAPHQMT

melting point: 194 to 196 °C | inhibition at 1 µM (human PPARγ1): 103%
Structure (SMILES): CCn1cnc(/C=C/c2cn(-c3ccccc3)nc2OCc2ccc(OCc3nc(-c4ccc(CC(=O)O)cc4)oc3C)c(OC)c2)c1 [Example 344, (4-{4-[(4-[({4-[(E)-2-(1-ethyl-1H-imidazol-4-yl)ethenyl]-1-phenyl-1H-pyrazol-3-yl}oxy)methyl]-2-methoxyphenoxy)methyl]-5-methyl-1,3-oxazol-2-yl}phenyl)acetic acid]
